According to PMC5428013, “Peptide-Au Clusters Induced Tumor Cells Apoptosis via Targeting Glutathione Peroxidase-1: The Molecular Dynamics Assisted Experimental Studies” (Scientific Reports, 2017):

Key:
Type in all cases: cell-based, human
A549 cells [1] = test: Mitochondrial membrane potential assay (JC-1); conditions: 800 µM Au, 48 h, JC-1, CLSM
Experimental: Disruption of ΔΨm is an important step in the induction of cellular apoptosis. JC-1, a sensitive mitochondrial dye, was used to evaluate the ΔΨm. JC-1 can aggregates in the mitochondrial matrix to yield red fluorescence (λem = 590 nm) at high mitochondrial membrane potential, while JC-1 monomer has green fluorescence at low mitochondrial membrane potential (λem = 527 nm). Therefore, using JC-1 easily signals the loss of ΔΨm, an event of early cell apoptosis. After treated with 800 µM of Au25P1_9 for 48 h on glass-bottom dish, cells were stained with JC-1 at 37 °C for 20 min under darkness. Then, cells were washed twice with cold buffer solution and JC-1 fluorescence inside cells was immediately observed by CLSM.

caspase-3 = test: Cleaved caspase-3 level, western blotting; conditions: serial Au doses (0, 100, 200, 400, 800 μM), 48 h
Experimental: The expression of GPx-1, caspase-3 and PARP from Au25P1_9 treated A549 cells were analyzed by western blotting. A549 cells were prior seeded on 6-well plate (at the density of 1 × 10^5 cells/well) for 24 h. Then the medium was discarded and fresh culture medium with Au25P1_9 at different doses was added to make cells exposed to final Au doses at 0, 100, 200, 400 and 800 μM, respectively. After another 48 h incubation, the cells were harvested and lysed by cell lysis buffer for Western and IP (containing 20 mM Tris-HCl, pH7.5, 150 mM NaCl, 1% Triton X-100, sodium pyrophosphate, β-glycerophosphate, EDTA, Na3VO4 and leupeptin), protease inhibitor cocktail tablet and 1 mM PMSF for 15 min on a shaker at 4 °C. The lysed cells were collected and centrifuged for 15 min at 12,000 g to get total protein of cells. The protein dose of each sample was prior quantified, and then loading buffer was added. After boiling for 5 min, the protein samples with equal amount were separated on 12% SDS polyacrylamide gel electrophoresis and then transferred onto the polyvinylidene difluoride (PVDF) membrane. Membrane was blocked by 5% nonfat dried milk prepared in tris(hydroxymethyl)amin omethane-NaCl-Tween 20 (TBST) at room temperature for 1 h, and then incubated with primary antibodies specific to β-actin, Caspase-3, PARP and GPx-1 at 4 °C overnight, respectively. […]

A549 cells [2] = test: Intracellular ROS level by flow cytometry (CM-H2DCFDA); conditions: 48 h
Experimental: (§1) For CLSM observation, cells were prior cultured on glass-bottom dishes. Au25P1_9 was added to culture medium and the final Au dose was 800 µM. After 48 h. the cells were washed three times with PBS and incubated with 5 µM CM-H2DCFDA, at 37 °C under darkness for 30 min. Before CLSM observation, the culture medium was discarded and the cells were washed three times with PBS, supplemented with fresh culture medium. Finally, ROS in cells were highlighted by green fluorescence emission of CM-H2DCFDA, imaged under Nikon Ti-e microscope with excitation at wavelengths of 488 nm. For flow cytometry analysis, cells were prior seeded on 6-well plate (at the density of 1 × 10^5 cells/well) for 24 h. Then the medium was discarded and fresh culture medium containing Au25P1_9 with Au dose at 800 μM was added. For another 48 h incubation, the cells were washed thrice with PBS, and incubated with 5 µM CM-H2DCFDA at 37 °C under darkness for 30 min. After washing with PBS, the cells were collected and suspended in ice cold PBS. Fluorescence intensity of 20,000 events was recorded using an Accuri C6 flow cytometer and the level of intracellular ROS was analyzed by Cflow software.

A549 cells [3] = test: Uptake of Au25P1_9 by A549 cells determined by ICP-MS; conditions: Au dose 0, 100, 200, 400, 800 μM, 48 h
Experimental: The cells were cultured in medium supplemented with 10% fetal bovine serum and 1% penicillin and streptomycin in a culture flask (25 cm^2), reseeded every 2–4 days to maintain subconfluency and kept in humidified atmosphere of 95% air and 5% CO2 at 37 °C. After cells reaching 80% confluence during the exponential growth in culture flask, the cells were harvested and subcultured on 6-well plate (at the density of 1 × 10^5 cells/well) for 24 h. Then the medium was discarded and fresh culture medium with Au25P1_9 at different doses was added to make cells exposed to final Au doses at 0, 100, 200, 400 and 800 μM, respectively. After another 48 h incubation, the cells were treated with trypsin and collected, and then washed thrice with PBS. 5 × 10^5 cells of each sample counted by flow cytometry were predigested by HNO3 and H2O2 at a volume ratio of 3:1 for 12 h and further digested by aqua regia at 160 °C, and then diluted to 10 mL aqueous solution with 1% HCl and 2% HNO3. Finally, the amount of Au25P1_9 taken into cells was measured by ICP-MS with Au calibration curve.

HCT-8 cells = test: Cell viability assay (CCK-8), HCT-8; conditions: HCT-8, same condition as A549
Experimental: Briefly, cells were prior cultured on 96-well plates (at the density of 5 × 10^3 cells/well) for 24 h to allow cells attachment. The cells were treated with different doses of these free peptides (0, 1, 4, 16, 64, 256, 1024 µM) and peptide-Au clusters (0, 50, 100, 200, 400, 800 µM in Au dose) for 48 h, respectively. The cells were washed three times with PBS and then incubated with fresh growth medium containing 10% (v/v) CCK-8 reagent for 1 h at 37 °C for cell viability assay. The absorbance was measured at 450 nm by using a microplate reader (SpectraMAX M2, Sunnyvale, California). Cell viability of untreated cells was set as 100%, and that of treated cells were expressed as a relative percentage of untreated cells. All data were shown as mean percentages ± standard deviation from three independent experiments.

A549 cells [4] = test: Intracellular ROS level by CLSM (CM-H2DCFDA); conditions: Au25P1_9, final Au dose 800 µM, 48 h, 5 µM CM-H2DCFDA
Experimental: as §1

CCYGGPEEEEEVG [Au25P1_9, Au25 cluster coated by nine P1 peptides (…)]
mitochondrial membrane potential change (A549 cells [1]): a red to green emission shift can be observed in most cells after treated with Au25P1_9, indicating mitochondria depolarization
cleaved caspase-3 level (caspase-3): Au dose-dependent increase of cleaved caspases-3
FL1-H fluorescence intensity (ROS) (A549 cells [2]; Au dose 800 µM, with CM-H2DCFDA, CM-H2DCFDA only control 20088, untreated 2674): 43464
intracellular ROS level relative to control (A549 cells [2]; Au dose of 800 μM, 5 µM CM-H2DCFDA, flow cytometry, 20,000 events): ~ 210%
cellular uptake (A549 cells [3]): dosage dependent manner
change of cell viability (HCT-8 cells): almost negligible
intracellular ROS by CLSM (A549 cells [4]): obvious green fluorescence, a sign of increased intracellular ROS
